Results published in the supplement of paper PMC10307832.

Legend:
Assay in all cases: relative viability (nuclei count vs DMSO), 5 days (fraction); higher = more cells survive
Decitabine + Lapatinib = compound: Nc1ncn([C@H]2C[C@H](O)[C@@H](CO)O2)c(=O)n1 [Decitabine] + CS(=O)(=O)CCNCc1ccc(-c2ccc3ncnc(Nc4ccc(OCc5cccc(F)c5)c(Cl)c4)c3c2)o1 [Lapatinib] (partner 2 µM)
Method in brief: (§1)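 After 5 days of treatment, lung cancer cells in 1536-well plates were fixed and stained in a single step (final 0.05% Triton X-100, 1% formaldehyde, 1 ug/ml Hoechst) and their nuclei counted on 4× images. Treatment had been applied by pin tool the day after seeding as one drug alone or as a fixed anchor-drug dose with five library-drug doses (not always all listed) in √10 steps. Relative viability is the nuclei count of treated wells divided by that of vehicle wells, and values are medians of duplicate plates.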

Cediranib + Dasatinib = compound: COc1cc2c(Oc3ccc4[nH]c(C)cc4c3F)ncnc2cc1OCCCN1CCCC1 [Cediranib] + Cc1nc(Nc2ncc(C(=O)Nc3c(C)cccc3Cl)s2)cc(N2CCN(CCO)CC2)n1 [Dasatinib] (partner 0.075 µM)
Method in brief: as §1

Halofuginone + Lapatinib = compound: O=C(C[C@H]1NCCC[C@@H]1O)Cn1cnc2cc(Br)c(Cl)cc2c1=O (racemic) [Halofuginone] + CS(=O)(=O)CCNCc1ccc(-c2ccc3ncnc(Nc4ccc(OCc5cccc(F)c5)c(Cl)c4)c3c2)o1 [Lapatinib] (partner 2 µM)
Method in brief: as §1

Cediranib + Phenformin = compound: COc1cc2c(Oc3ccc4[nH]c(C)cc4c3F)ncnc2cc1OCCCN1CCCC1 [Cediranib] + N=C(N)NC(=N)NCCc1ccccc1 [Phenformin] (partner 250 µM)
Method in brief: as §1

Cell Line	relative viability (Decitabine + Lapatinib; first compound 0.04 µM)	relative viability (Decitabine + Lapatinib; first compound 0.1265 µM)	relative viability (Decitabine + Lapatinib; first compound 0.4 µM)	relative viability (Decitabine + Lapatinib; first compound 1.265 µM)	relative viability (Decitabine + Lapatinib; first compound 4 µM)	relative viability (Cediranib + Dasatinib; first compound 0.04 µM)	relative viability (Cediranib + Dasatinib; first compound 0.1265 µM)	relative viability (Cediranib + Dasatinib; first compound 0.4 µM)	relative viability (Cediranib + Dasatinib; first compound 1.265 µM)	relative viability (Cediranib + Dasatinib; first compound 4 µM)	relative viability (Halofuginone + Lapatinib; first compound 0.001 µM)	relative viability (Halofuginone + Lapatinib; first compound 0.003162 µM)	relative viability (Halofuginone + Lapatinib; first compound 0.01 µM)	relative viability (Halofuginone + Lapatinib; first compound 0.03162 µM)	relative viability (Halofuginone + Lapatinib; first compound 0.1 µM)	relative viability (Cediranib + Phenformin; first compound 0.04 µM)	relative viability (Cediranib + Phenformin; first compound 0.1265 µM)	relative viability (Cediranib + Phenformin; first compound 0.4 µM)	relative viability (Cediranib + Phenformin; first compound 1.265 µM)	relative viability (Cediranib + Phenformin; first compound 4 µM)
NCI-H1755	1.02	0.991	0.836	0.573	0.481	0.471	0.59	0.343	0.463	0.424	0.993	0.992	0.992	1.04	0.997	0.528	0.519	0.616	0.618	0.677
NCI-H1792	0.851	0.94	0.806	0.564	0.53	0.823	0.872	0.557	0.923	0.957	0.897	0.857	0.896	0.831	0.994	0.237	0.41	0.197	0.322	0.284
NCI-H1793	0.543	0.604	0.489	0.562	0.291	0.317	0.415	0.398		0.501	0.775	0.832	0.707	0.811	0.589	0.231	0.32	0.39		0.393
NCI-H1915	0.608	0.33	0.257	0.189	0.219	0.279	0.305	0.305	0.324	0.345	0.977	0.983	0.942	0.96	0.984	0.371	0.331	0.372	0.374	0.364
NCI-H1944	0.807	0.819	0.526	0.428	0.416	0.216	0.227	0.221	0.193	0.236	0.709	0.835	0.852	0.825	0.675	0.211	0.223	0.167	0.205	0.235
NCI-H1975	0.538	0.456	0.364	0.327	0.29	0.361	0.35	0.337	0.356	0.352	0.881	0.873	0.766	0.692	0.385	0.421	0.415	0.394	0.459	0.426
NCI-H1993	0.837	0.774	0.8	0.731	0.725	0.567	0.702	0.537	0.434	0.649	0.792	0.86	0.862	0.789	0.823	0.423	0.5	0.484	0.523	0.393
NCI-H2009	0.8	0.599	0.225	0.268	0.276	0.311	0.523	0.301	0.297	0.309	1.06	1.01	0.887	0.83	0.409	0.492	0.434	0.481	0.481	0.493
NCI-H2023	0.55	0.519	0.125	0.231	0.157	0.594	0.623	0.567	0.537	0.668	0.8	0.809	0.874	0.494	0.0821	0.417	0.443	0.396	0.42	0.458
NCI-H2085	0.628	0.646	0.446	0.494	0.445	0.257	0.26	0.273	0.272	0.23	0.769	0.762	0.695	0.778	0.649	0.655	0.844	0.632	0.753	0.814
NCI-H2087	0.774	0.637	0.457	0.346	0.37	0.872	0.953	0.801	0.944	0.905	1.05	1.29	1.21	0.959	1.19	0.382	0.45	0.402	0.452	0.546
NCI-H2126	0.749	0.781	0.472	0.564	0.544	0.634	0.569	0.609	0.554	0.543	0.798	0.732	0.773	0.743	0.683	0.515	0.526	0.53	0.516	0.538
NCI-H2170	0.281	0.267	0.268	0.251	0.249	0.523	0.713	0.605	0.384	0.566	0.279	0.296	0.259	0.291	0.249	0.373	0.284	0.403	0.406	0.419
NCI-H2228	0.595	0.727	0.489	0.282	0.209	0.634	0.505	0.52	0.54	0.601	1.06	1.02	0.908	0.657	0.121	0.278	0.272	0.278	0.285	0.319
NCI-H2347	0.895	0.938	0.793	0.548	0.633	0.262	0.288	0.268	0.277	0.381	1	0.853	0.906	0.918	0.65	0.34	0.236	0.383	0.386	0.41
NCI-H2405	0.942	0.904	0.679	0.553	0.434	0.2	0.583	0.227	0.196	0.218	1.14	1.01	1.02	1.02	0.861	0.358	0.422	0.378	0.38	0.368
